Source: patent US20230142126A1, “METHODS AND COMPOSITIONS FOR THE TREATMENT OF VIRAL DISEASES” (priority 2020, published 2023)
Values joined by “and” are separate entries in the source; they are usually repeats but may differ in a detail not shown here. Equal values may be shown once. Read-outs that look alike come from different tables or passages of the source.

How the values were obtained:
[1] = system: SARS-CoV-2 hCoV-19/USA/WA1/2020; format: cell-based
[2] = Plasma concentration of Balicatib after oral dosing, based on human clinical dosing; conditions: 400 mg oral dosing, EC50 against SARS-CoV-2
Measles = assay: CPE antiviral assay (MTS), Measles in MRC-5 cells; format: cell-based, Measles Virus (Edmonston); conditions: CPE 10 days, at the concentrations tested
Protocol: (§1) Viruses and cells were mixed in the presence of Balicatib (HB-121) and incubated for the assay duration as specified in Table 1. […] An antiviral effect or cytoprotective effect was considered to be observed when therapeutic agent (Balicatib or positive control indicated in Table 1) prevented virus replication. A standardized plate format was used for cytoprotective assays. […] Samples were evaluated for antiviral efficacy with triplicate measurements to determine cytotoxicity, if detectable. […]
(§2) At assay termination, the assay plates were stained with the soluble tetrazolium-based dye MTS (CellTiter®96 Reagent, Promega) to determine cell viability and quantify compound toxicity. MTS is metabolized by the mitochondrial enzymes of metabolically active cells to yield a soluble formazan product, allowing the rapid quantitative analysis of cell viability and compound cytotoxicity. […] Adhesive plate sealers were used in place of the lids, the sealed plates were inverted several times to mix the soluble formazan product and the plate was read spectrophotometrically at 490/650 nm with a Molecular Devices SpectraMax i3 plate reader. […]

[3] = Cytotoxicity assay (MTS dye reduction) in the cells of the Enterovirus assay; format: cell-based; conditions: human
Protocol: (§3) Viruses and cells were mixed in the presence of Balicatib (HB-121) and incubated for the assay duration as specified in Table 1. […] An antiviral effect or cytoprotective effect was considered to be observed when therapeutic agent (Balicatib or positive control indicated in Table 1) prevented virus replication. A standardized plate format was used for cytoprotective assays. Each plate contained cell control wells (cells only), virus control wells (cells plus virus), therapeutic agent cytotoxicity wells (cells plus therapeutic agent only), therapeutic agent colorimetric control wells (therapeutic agent only), background control wells (media only), as well as experimental wells (therapeutic agent plus cells plus virus). Samples were evaluated for antiviral efficacy with triplicate measurements to determine cytotoxicity, if detectable. […] Interferon (IFN) was used as positive controls in the assays were noted as IU/mL (bioactivity defined by International Units/mL was used from the certificate of analysis information provided by the vendor, PBL Assay Science, Piscataway, NJ). […]
as §2
(§4) Cells were seeded at 2,500 to 40,000 cells per well in 96-well plates in replication medium as specified in Table 3. […] After the assay readout (duration) as specified in Table 1, cell viability was determined using MTS dye reduction. […]

RD cells = assay: as above; format: cell-based; conditions: RD cells, 4 days
Protocol: as §3, §2, §4

Influenza B (Flu B.Bris) = assay: CPE antiviral assay (MTS), Influenza B in MDCK cells; format: cell-based; conditions: CPE 3 days, at the concentrations tested
[4] = system: Respiratory syncytial virus (RSV); assay: CPE antiviral assay (MTS), RSV in HEp-2 cells; format: cell-based, Long; conditions: CPE 5 days, at the concentrations tested
Protocol: as §1, §2

[5] = system: Dengue virus, serotype 2 (DENV2); assay: CPE antiviral assay (MTS), Dengue virus in BHK-21 cells; format: cell-based, New Guinea C; conditions: CPE 5 days, at the concentrations tested
Protocol: as §1, §2

[6] = system: SARS-CoV-2 (strain: BEI_USA-WA1/2020); assay: microbe, parasite or virus in culture; format: cell-based; conditions: Severe acute respiratory syndrome coronavirus 2; Calu-3, 4 h pretreatment, MOI 0.01, 48 h post-infection, % infected cells (FIG. 1); read-out: approximate EC50
HIV-1 (IIIB) = assay: CPE antiviral assay (MTS), HIV-1 in MT-4 cells; format: cell-based; conditions: CPE 6 days, at the concentrations tested
Protocol: as §1, §2

SARS-CoV-2 = assay: microbe, parasite or virus in culture; format: cell-based
Enterovirus 71 = assay: CPE (cytoprotection) antiviral assay with MTS readout, Enterovirus 71 in RD cells; format: cell-based, Enterovirus (EV-71(H)), strain 71H; conditions: for EC50: 50% inhibition of virus replication, read-out: EC 50% (EC50)
Protocol: Viruses and cells were mixed in the presence of Balicatib (HB-121) and incubated for the assay duration as specified in Table 1. […] An antiviral effect or cytoprotective effect was considered to be observed when therapeutic agent (Balicatib or positive control indicated in Table 1) prevented virus replication. A standardized plate format was used for cytoprotective assays. Each plate contained cell control wells (cells only), virus control wells (cells plus virus), therapeutic agent cytotoxicity wells (cells plus therapeutic agent only), therapeutic agent colorimetric control wells (therapeutic agent only), background control wells (media only), as well as experimental wells (therapeutic agent plus cells plus virus). Samples were evaluated for antiviral efficacy with triplicate measurements to determine cytotoxicity, if detectable. […] Interferon (IFN) was used as positive controls in the assays were noted as IU/mL (bioactivity defined by International Units/mL was used from the certificate of analysis information provided by the vendor, PBL Assay Science, Piscataway, NJ). In Table 2, fields labeled as “Drug 1” or “Drug 2” indicate Cells + Virus + Drug; fields labeled as “Tox 1” or “Tox 2” indicate Cells + Drug 1 or Drug 2, respectively (toxicity tested in duplicate); Cells labeled as “Color 1” or “Color 2” = Media + Drug 1 or Drug 2, respectively (colorimetric background, no cells).
At assay termination, the assay plates were stained with the soluble tetrazolium-based dye MTS (CellTiter®96 Reagent, Promega) to determine cell viability and quantify compound toxicity. MTS is metabolized by the mitochondrial enzymes of metabolically active cells to yield a soluble formazan product, allowing the rapid quantitative analysis of cell viability and compound cytotoxicity. […] At termination of the assay, 10-25 µL of MTS reagent was added per well (10% final concentration based on volume) and the microtiter plates were then incubated for 2-3 hours at 37° C., (except Rhinovirus assay plates, which were incubated at 33° C.) 5% CO2 to assess cell viability. Adhesive plate sealers were used in place of the lids, the sealed plates were inverted several times to mix the soluble formazan product and the plate was read spectrophotometrically at 490/650 nm with a Molecular Devices SpectraMax i3 plate reader.
Using an in-house computer program, the CPE data analysis was conducted and included the calculation of EC50 (50% inhibition of virus replication), EC95 (95% inhibition of virus replication), CC50 (50% cytotoxicity), CC95 (95% cytotoxicity) and selectivity index values (SI = CC/EC; also referred to as Antiviral Index or AI).
The minimum inhibitory drug concentration that reduced plaque formation by 50% (EC50) and the minimum drug concentration that inhibited cell growth by 50% (CC50) were calculated. The selectivity index (SI) for each active compound was determined by dividing the CC50 by the EC50.

Adenovirus (Type 5) = assay: CPE antiviral assay (MTS), Adenovirus in HeLa cells; format: cell-based; conditions: CPE 6 days, at the concentrations tested
in vitro = conditions: human
Parainfluenza Type 3 = assay: CPE antiviral assay (MTS), Parainfluenza in LLC-MK2 7.1 cells; format: cell-based, Parainfluenza Type 3 C243; conditions: CPE 7 days, at the concentrations tested
Protocol: as §1, §2

Rhinovirus 14 (HRV 14) = assay: CPE antiviral assay (MTS), Rhinovirus 14 in H1 HeLa cells; format: cell-based, strain 1059; conditions: 33° C., CPE 4 days, at the concentrations tested
Influenza A (Flu A. Cal) = assay: CPE antiviral assay (MTS), Influenza A in MDCK cells; format: cell-based, A/California/07/2009; conditions: CPE 3 days, at the concentrations tested
Protocol: as §1, §2

Coxsackie (A7) (CoxA7) = assay: CPE antiviral assay (MTS), Coxsackie A7 in LLC-MK2 7.1 cells; format: cell-based; conditions: CPE 4 days, at the concentrations tested

SMILES: CCCN1CCN(c2ccc(C(=O)NC3(C(=O)NCC#N)CCCCC3)cc2)CC1 [Balicatib]
- titer reduction in virus titer (TCID50) ([1]; 0.3 µM (lowest test concentration), A549-hACE2, MOI 0.1, 24 hours): > 3 log
- titer reduction vs virus without Balicatib (TCID50) ([1]; 5 µM, A549-hACE2, MOI 0.1, 24 hours): more than 6 log
- reduction of SARS-CoV-2 WA1/2020 ([1]; A549-hACE2 cells, 24 hours): significant reduction
- time plasma concentration is above EC50 [2]: 16 to 20 h
- antiviral efficacy (Measles): not effective
- CC50 at 4 days [3]: > 30 µM
- CC 25% (RD cells; 25% cytotoxicity): > 30.0 µM
- CC 95% (CC95) (RD cells; 95% cytotoxicity): > 30.0 µM
- antiviral efficacy (Influenza B (Flu B.Bris)): not effective
- antiviral efficacy [4]: not effective
- Cell Appearance (Calu-3 human cells; 100 µM (Table 6)): No CPEs
- Viability (%) at 24 hr time point (Calu-3 human cells; 100 µM, 24 hr, 98.7% viability at seeding): 71.0% and 72.1%
- effect on cell growth (Calu-3 human cells; 100 µM, Calu-3): little to no effect on cell growth
- effect on cellular viability (Calu-3 human cells; 100 µM, Calu-3): does not alter cellular viability
- Count (cells/ml) at 24 hr time point (Calu-3 human cells; 100 µM, seeded at 2.0E5 per well, 24 hr): 1.8e5 cells/ml and 1.6e5 cells/ml
- antiviral efficacy [5]: not effective
- EC50 [6]: 0.25 to 0.5 µM
- antiviral efficacy (HIV-1 (IIIB)): not effective
- Overall % Inhibition (average of two experiments) Combined (SARS-CoV-2; 100 nM, 0.1 µM): 57.75%
- Overall % Inhibition (average of two experiments) Combined (SARS-CoV-2; 10 µM): 99.4%
- Selectivity Index (SI) (SARS-CoV-2; Calu-3 cells, calculated from CC50 and EC50): > 300
- inhibition at 0.1 µM (SARS-CoV-2; Severe acute respiratory syndrome coronavirus 2, Calu-3, 100 nM, read-out: Overall % Inhibition (average of two experiments) Combined): ~57%
- inhibition at 0.3 µM (SARS-CoV-2; Severe acute respiratory syndrome coronavirus 2, Calu-3, 300 nM, read-out: Overall % Inhibition (average of two experiments) Combined): 90%
- inhibition at 1 µM (SARS-CoV-2; Severe acute respiratory syndrome coronavirus 2, Calu-3, 1 µM, read-out: Overall % Inhibition (average of two experiments) Combined): ~68%
- inhibition at 3 µM (SARS-CoV-2; Severe acute respiratory syndrome coronavirus 2, Calu-3, 3 µM, read-out: Overall % Inhibition (average of two experiments) Combined): ~100%
- inhibition at 10 µM (SARS-CoV-2; Severe acute respiratory syndrome coronavirus 2, Calu-3, 10 µM, read-out: Overall % Inhibition (average of two experiments) Combined): ~100%
- inhibition at 30 µM (SARS-CoV-2; Severe acute respiratory syndrome coronavirus 2, Calu-3, 30 µM, read-out: Overall % Inhibition (average of two experiments) Combined): ~100%
- inhibition at 0.1 µM (SARS-CoV-2; Severe acute respiratory syndrome coronavirus 2, Calu-3, 72 h, 100 nM, MOI 0.1, 72 h, read-out: % Inhibition Experiment 1): 97.3%
- inhibition at 0.1 µM (SARS-CoV-2; Severe acute respiratory syndrome coronavirus 2, Calu-3, 72 h, 100 nM, MOI 0.1, 72 h, read-out: % Inhibition Experiment 2): 18%
- inhibition at 0.3 µM (SARS-CoV-2; Severe acute respiratory syndrome coronavirus 2, Calu-3, 72 h, 300 nM, MOI 0.1, 72 h, read-out: % Inhibition Experiment 2): 90%
- inhibition at 1 µM (SARS-CoV-2; Severe acute respiratory syndrome coronavirus 2, Calu-3, 72 h, 1 µM, MOI 0.1, 72 h, read-out: % Inhibition Experiment 1): 64%
- inhibition at 1 µM (SARS-CoV-2; Severe acute respiratory syndrome coronavirus 2, Calu-3, 72 h, 1 µM, MOI 0.1, 72 h, read-out: % Inhibition Experiment 2): 72.5%
- inhibition at 3 µM (SARS-CoV-2; Severe acute respiratory syndrome coronavirus 2, Calu-3, 72 h, 3 µM, MOI 0.1, 72 h, read-out: % Inhibition Experiment 2): 100%
- inhibition at 10 µM (SARS-CoV-2; Severe acute respiratory syndrome coronavirus 2, Calu-3, 72 h, 10 µM, MOI 0.1, 72 h, read-out: % Inhibition Experiment 1): 98.8%
- inhibition at 10 µM (SARS-CoV-2; Severe acute respiratory syndrome coronavirus 2, Calu-3, 72 h, 10 µM, MOI 0.1, 72 h, read-out: % Inhibition Experiment 2): 100%
- inhibition at 30 µM (SARS-CoV-2; Severe acute respiratory syndrome coronavirus 2, Calu-3, 72 h, 30 µM, MOI 0.1, 72 h, read-out: % Inhibition Experiment 2): 100%
- EC90 (SARS-CoV-2; Severe acute respiratory syndrome coronavirus 2, Calu-3, plaque assay, estimated): 1 to 3 µM
- EC50 (SARS-CoV-2; Severe acute respiratory syndrome coronavirus 2, Calu-3, plaque assay, estimated from two studies): 0.05 to 0.6 µM
- EC 25% (Enterovirus 71; 25% inhibition of virus replication, RD cells, CPE 4 days): 5.85 µM
- EC50 (Enterovirus 71; RD cells, CPE 4 days, listed as HB-121): 22.1 µM
- EC 95% (EC95) (Enterovirus 71; 95% inhibition of virus replication, RD cells, CPE 4 days): >30.0 µM
- EC50 (Enterovirus 71; Enterovirus A, RD, 96 h, RD cells, CPE 4 days): ~20 µM
- Selectivity Index (SI) 50% (Enterovirus 71; SI = CC50/EC50): >1.36
- Selectivity Index (SI) 25% (Enterovirus 71; SI = CC/EC at 25%): >5.13
- antiviral efficacy (Adenovirus (Type 5)): not effective
- CC50 (in vitro): > 100 µM
- antiviral efficacy (Parainfluenza Type 3): not effective
- antiviral efficacy (Rhinovirus 14 (HRV 14)): not effective
- antiviral efficacy (Influenza A (Flu A. Cal)): not effective
- antiviral efficacy (Coxsackie (A7) (CoxA7)): not effective
